The compounds below were run against PCAF719-832 bromodomain (Homo sapiens (Human), UniProt Q92831) (assay: PCAF AlphaLisa binding assay). Settings: PCAF bromodomain 225 nM, biotinylated small molecule ligand 6 nM.
PCAF719-832 bromodomain, sequence (Q92831 719-832): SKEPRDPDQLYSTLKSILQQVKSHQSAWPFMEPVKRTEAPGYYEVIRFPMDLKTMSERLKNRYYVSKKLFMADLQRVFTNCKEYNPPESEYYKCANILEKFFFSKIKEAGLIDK

| Compound | IC50 [µM] |
| --- | --- |
| C[C@H](Nc1nn(C)c(=O)c2cccnc12)[C@H](c1ccc(Oc2ccccc2)cc1)N(C)C (single isomer, unassigned) [Example 64] | 0.29 |
| Cc1cccc2c(N[C@@H](C)[C@H](c3ccccc3)N(C)C)nn(C)c(=O)c12 (single isomer, unassigned) [Example 69A] | > 5 |
| Cc1cccc2c(N[C@H](C)[C@@H](c3ccccc3)N(C)C)nn(C)c(=O)c12 (single isomer, unassigned) [Example 69B] | 0.17 |
| Cc1cccc2c(=O)n(C)nc(N[C@H](C)[C@@H](c3ccccc3)N(C)C)c12 (single isomer, unassigned) [Example 70B] | 1.8 |
| C[C@H](Nc1nn(C)c(=O)c2[nH]ccc12)[C@H](c1ccccc1)N(C)C (single isomer, unassigned) [Example 71A] | > 5 |
| C[C@@H](Nc1nn(C)c(=O)c2ccccc12)[C@@H](c1ccccc1)N(C)C (single isomer, unassigned) [Example 73B] | 0.68 |
| C[C@@H](Nc1nn(C)c(=O)c2cccnc12)[C@@H](c1ccc(S(=O)(=O)c2ccccc2)cc1)N(C)C (single isomer, unassigned) [Example 74B] | 2.3 |
| CC(Nc1nn(C)c(=O)c2cccnc12)C(c1cn(C)nn1)N(C)C (single isomer, unassigned) [Example 75, 8-((1-(dimethylamino)-1-(1-methyl-1H-1,2,3-triazol-4-yl)propan-2-yl)amino)-6-methylpyrido[2,3-d]pyridazin-5(6H)-one] | 0.13 |
| CN(C)[C@@H](CNc1nn(C)c(=O)c2cccnc12)c1ccccc1 [Example 1B, (R)-8-((2-(dimethylamino)-2-phenylethyl)amino)-6-methylpyrido[2,3-d]pyridazin-5(6H)-one] | 2.2 |
| CN(C)CCNc1nn(C)c(=O)c2cccnc12 [Example 2, 8-((2-(dimethylamino)ethyl)amino)-6-methylpyrido[2,3-d]pyridazin-5(6H)-one] | 0.14 |
| COc1ccc2c(=O)n(C)nc(NCCN(C)C)c2c1 [Example 3, 4-((2-(dimethylamino)ethyl)amino)-6-methoxy-2-methylphthalazin-1(2H)-one] | 0.41 |
| COc1ccc2c(NCCN(C)C)nn(C)c(=O)c2c1 [Example 4, 4-((2-(dimethylamino)ethyl)amino)-7-methoxy-2-methylphthalazin-1(2H)-one] | 0.47 |
| CN(C)CCSc1nn(C)c(=O)c2ccccc12 [Example 9, 4-((2-(dimethylamino)ethyl)thio)-2-methylphthalazin-1(2H)-one] | 0.89 |
| CN1CC(Nc2nn(C)c(=O)c3cccnc23)C1 [Example 18, 6-methyl-8-((1-methylazetidin-3-yl)amino)pyridol[2,3-d]pyridazin-5(6H)-one] | 1.5 |
| Cn1nc(NC2CNC2)c2ncccc2c1=O [Example 19, 8-(azetidin-3-ylamino)-6-methylpyrido[2,3-d]pyridazin-5(6H)-one] | 3.4 |
| CCN(CC)CCNc1nn(C)c(=O)c2ccccc12 [Example 23, 4-((2-(diethylamino)ethyl)amino)-2-methylphthalazin-1(2H)-one] | 2.4 |
| Cn1nc(NCCN2CCCC2)c2ccccc2c1=O [Example 24, 2-methyl-4-((2-(pyrrolidin-1-yl)ethyl)amino)phthalazin-1(2H)-one] | 0.92 |

More lines, now with the values ahead:

| IC50 [µM] | Compound |
| --- | --- |
| 0.041 | CC[C@H](Nc1nn(C)c(=O)c2ccccc12)[C@H](c1ccccc1)N(C)C (single isomer, unassigned) [Example 56] |
| 0.04 | CC[C@H](Nc1nn(C)c(=O)c2cccnc12)[C@H](c1ccccc1)N(C)C (single isomer, unassigned) [Example 58] |
| 0.033 | CC(C)Oc1ccc([C@@H]([C@H](C)Nc2nn(C)c(=O)c3ccccc23)N(C)C)cc1 (single isomer, unassigned) [Example 59] |
| 0.021 | C[C@H](Nc1nn(C)c(=O)c2ccccc12)[C@H](c1ccccn1)N(C)C (single isomer, unassigned) [Example 60] |
| 0.086 | C[C@H](Nc1nn(C)c(=O)c2ccccc12)[C@H](c1cccnc1)N(C)C (single isomer, unassigned) [Example 61] |
| 0.063 | COc1ccc([C@@H]([C@H](C)Nc2nn(C)c(=O)c3ccccc23)N(C)C)cn1 (single isomer, unassigned) [Example 62] |
| 0.036 | Cc1cccc2c(=O)n(C)nc(N[C@@H](C)[C@H](c3ccccc3)N(C)C)c12 (single isomer, unassigned) [Example 70A] |
| 0.083 | C[C@@H](Nc1nn(C)c(=O)c2[nH]ccc12)[C@@H](c1ccccc1)N(C)C (single isomer, unassigned) [Example 71B] |
| 0.023 | C[C@H](Nc1nn(C)c(=O)c2ccccc12)[C@H](c1ccccc1)N(C)C (single isomer, unassigned) [Example 73A] |
| 0.04 | CC(Nc1nn(C)c(=O)c2cccnc12)C(c1ccc(S(=O)(=O)c2ccccc2)cc1)N(C)C (single isomer, unassigned) [Example 74, 8-((1-(dimethylamino)-1-(4-(phenylsulfonyl)phenyl)propan-2-yl)amino)-6-methylpyrido[2,3-d]pyridazin-5(6H)-one] |
| 0.02 | C[C@H](Nc1nn(C)c(=O)c2cccnc12)[C@H](c1ccc(S(=O)(=O)c2ccccc2)cc1)N(C)C (single isomer, unassigned) [Example 74A] |
| 0.044 | C[C@H](Nc1nn(C)c(=O)c2ccccc12)[C@H](c1ccc(OCC2CC2)cc1)N(C)C (single isomer, unassigned) [Example 78] |
| 0.073 | COc1ccc([C@@H]([C@H](C)Nc2nn(C)c(=O)c3ccccc23)N(C)C)cc1 (single isomer, unassigned) [Example 79] |
| 0.046 | C[C@H](Nc1nn(C)c(=O)c2ccccc12)[C@H](c1ccc(Oc2ccccn2)cc1)N(C)C (single isomer, unassigned) [Example 80] |
| 0.056 | C[C@H](Nc1nn(C)c(=O)c2cccnc12)[C@H](c1ccc(C(=O)N(C)Cc2ccccc2)cc1)N(C)C (single isomer, unassigned) [Example 84] |
| 0.05 | CNC(=O)c1ccc([C@@H]([C@H](C)Nc2nn(C)c(=O)c3cccnc23)N(C)C)cc1 (single isomer, unassigned) [Example 85] |
| 0.036 | C[C@H](Nc1nn(C)c(=O)c2ccccc12)[C@H](c1ccc(OCc2ccccc2)cc1)N(C)C (stereo in doubt) [Example 77, 4-((1-(4-(benzyloxy)phenyl)-1-(dimethylamino)propan-2-yl)amino)-2-methylphthalazin-1(2H)-one] |
| 0.086 | CN(C)C(CNc1nn(C)c(=O)c2cccnc12)c1ccccc1 (centres unmarked) [Example 1, 8-((2-(dimethylamino)-2-phenylethyl)amino)-6-methylpyrido[2,3-d]pyridazin-5(6H)-one] |
| 0.045 | CN(C)[C@H](CNc1nn(C)c(=O)c2cccnc12)c1ccccc1 [Example 1A, (S)-8-((2-(dimethylamino)-2-phenylethyl)amino)-6-methylpyrido[2,3-d]pyridazin-5(6H)-one] |
| 0.13 | CN(C)CCNc1nn(C)c(=O)c2cccc(F)c12 [Example 5, 4-((2-(dimethylamino)ethyl)amino)-5-fluoro-2-methylphthalazin-1(2H)-one] |
| 0.087 | CN(C)CCNc1nn(C)c(=O)c2c(F)cccc12 [Example 6, 4-((2-(dimethylamino)ethyl)amino)-8-fluoro-2-methylphthalazin-1(2H)-one] |
